“Also recorded” adds a separate entry of the source.
Tests used:
[1] = biological target: PSMA, lysates of LNCaP cell extracts (Homo sapiens (Human), UniProt Q04609); experiment: fluorescence-based PSMA inhibition assay (Amplex Red glutamic acid kit); assay type: biochemical; details: 4 μM NAAG
[2] = biological target: NAALADase (PSMA) prepared from LNCaP cell lysates (Homo sapiens (Human), UniProt Q04609); experiment: NAALADase (radiometric) assay, NAAG hydrolysis; assay type: biochemical; details: [3H]NAAG 30 nM
[3] = system: PC-3 PIP (PSMA+) and PC-3 flu (PSMA−) xenograft-bearing SCID mice; experiment: Ex vivo biodistribution in tumor-bearing mice; details: 5 h p.i.
[4] = system: PC-3 PIP and PC-3 flu xenografts in SCID mouse; experiment: SPECT-CT imaging of [125I]3 in PCa tumor models; assay type: in vivo; details: 4 h p.i., PC-3 PIP and PC-3 flu tumors
Method: At 4 and 6 h p.i. the mouse was anesthetized with isoflurane and maintained under 1% isoflurane in oxygen. The mouse was positioned on the X-SPECT (Gamma Medica, Northridge, Calif.) gantry and was scanned using two low energy, high-resolution pinhole collimators (Gamma Medica) rotating through 360° in 6° increments for 45 seconds per increment. All gamma images were reconstructed using Lunagem software (Gamma Medica, Northridge, Calif.) Immediately following SPECT acquisition, the mice were then scanned by CT (X-SPECT) over a 4.6 cm field-of-view using a 600 μA, 50 kV beam. […] Data were reconstructed using the Ordered Subsets-Expectation Maximization (OS-EM) algorithm.

Chain of PSMA, lysates of LNCaP cell extracts (Q04609 whole entry): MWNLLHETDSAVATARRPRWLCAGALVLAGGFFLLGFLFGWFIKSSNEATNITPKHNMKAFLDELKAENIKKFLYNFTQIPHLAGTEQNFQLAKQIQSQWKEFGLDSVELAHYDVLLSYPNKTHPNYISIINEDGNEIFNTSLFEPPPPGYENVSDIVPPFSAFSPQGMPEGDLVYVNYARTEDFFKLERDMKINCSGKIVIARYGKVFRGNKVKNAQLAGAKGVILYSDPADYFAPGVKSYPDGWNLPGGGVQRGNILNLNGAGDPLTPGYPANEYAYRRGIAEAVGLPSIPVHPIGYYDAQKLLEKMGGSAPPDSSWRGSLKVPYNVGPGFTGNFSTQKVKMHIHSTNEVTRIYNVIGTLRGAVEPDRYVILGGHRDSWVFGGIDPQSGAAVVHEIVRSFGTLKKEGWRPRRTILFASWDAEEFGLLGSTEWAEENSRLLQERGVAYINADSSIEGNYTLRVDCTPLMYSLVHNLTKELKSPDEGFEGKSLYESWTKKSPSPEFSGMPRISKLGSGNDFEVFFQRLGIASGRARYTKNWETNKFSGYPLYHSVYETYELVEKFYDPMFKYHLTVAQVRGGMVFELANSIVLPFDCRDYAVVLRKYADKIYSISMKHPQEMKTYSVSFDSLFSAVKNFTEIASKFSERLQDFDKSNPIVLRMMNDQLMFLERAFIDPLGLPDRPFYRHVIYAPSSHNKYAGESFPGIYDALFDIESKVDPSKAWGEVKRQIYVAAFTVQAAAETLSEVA

Structure (SMILES) | Ki [1] [nM] | Ki [2] [nM] | PIP:flu ratio [3] | radiopharmaceutical uptake in SPECT-CT image [4]
O=C(O)CCC(NC(=O)NC(CCCCNC(=O)c1ccc(F)cc1)C(=O)O)C(=O)O (stereo not shown) [Compound 6, 2-{3-[1-Carboxy-5-(4-fluoro-benzoylamino)-pentyl]-ureido}-pentanedioic acid] | 0.194 | 0.256 | 31 | 
O=C(O)CCC(NC(=O)NC(CCCCNC(=O)c1ccc([125I])cc1)C(=O)O)C(=O)O (stereo not shown) [[^125I]3, 2-{3-[1-carboxy-5-(4-[^125I]iodo-benzoylamino)-pentyl]-ureido}-pentanedioic acid] |  |  |  | intense uptake in the PC-3 PIP and absence of uptake in the PC-3 flu tumor; also recorded: uptake within the PSMA+ PIP tumor only

— US12070513B2, “PSMA-binding agents and uses thereof” (The Johns Hopkins University, priority 2008, dated 2024)
